The values below come from US5856175A, “Device for detecting microorganisms” (priority 1996, dated 1999).

The conditions of series [1]: Table 2, cited from earlier work; for pH range: acid-base indicator.
Series [2] relates to Alcaligenes odorans 33585. As to the kind of experiment: Pattern of inhibition using silicone-emulsion CO2 sensors (Table 3). The settings on record: 4 h, 37° C., 5×10^7 CFU/ml. In kind it is cell-based. From the text: (§1) Microbial identification using the described CO2 sensors can also be based on the principle of growth inhibition. This system differs from the classical biochemical identification systems, as identification is based on selective growth inhibition by inhibitory agents, such as dyes, antibiotics, and other substances. Once again, the production of CO2 is the measure of growth. The growth pattern produced in the presence of these inhibitory agents identifies the species of the test microorganism. The amount of growth is compared with a growth control well that contains no inhibitor. A profile is derived using a two-stage quadratic discriminate analysis based on the results derived from the battery of inhibitory agents.
(§2) Microtiter plates (96 flat bottom wells) containing 0.05% xylenol blue silicone-emulsion sensors were filled with 100 microliters of microbial growth medium containing no inhibitors (growth control wells) and eighteen different dyes, antibiotics, and other inhibitory substances. Final concentrations of the inhibitors were achieved after addition of 100 microliters of inoculum (final inoculum of 5×10^7 CFU/ml) of the representative microorganisms.
(§3) After inoculating the microtiter tray, it was sealed with a pressure sensitive plastic plate sealer and initial readings were taken with a reflectance reader. The plate was then placed into a 37° C. incubator. After four hours incubation, the plate was removed and final reflectance readings were taken.

Series [3] concerns Escherichia coli 33582. Described as above. It is filed as cell-based. Particulars: 4 h, 37° C., 5×10^7 CFU/ml.
Description: as §1, §2, §3

Series [4] deals with Proteus mirabilis 33583. The description is as above. In kind it is cell-based. Particulars: 4 h, 37° C., 5×10^7 CFU/ml.
Description: as §1, §2, §3

The test system of series [5] is Pseudomonas aeruginosa 33584. The series is described as above. It is filed as cell-based. The settings on record: 4 h, 37° C., 5×10^7 CFU/ml.
Description: as §1, §2, §3

On to `Cc1c(C2(c3cc(Br)c(O)c(Br)c3C)OS(=O)(=O)c3ccccc32)cc(Br)c(O)c1Br` [Bromocresol green (blue), Bromocresol green], for which the pH range in series [1] is listed as 3.6-5.2 pH.
Consider `Cc1cc(C2(c3cc(C)c(O)c(Br)c3)OS(=O)(=O)c3ccccc32)cc(Br)c1O` [Bromocresol purple], for which the pH range in series [1] is 5.2-6.8 pH.
`O=S1(=O)OC(c2cc(Br)c(O)c(Br)c2)(c2cc(Br)c(O)c(Br)c2)c2ccccc21` [Bromophenol blue]: the pH range in series [1] was 3.0-4.6 pH.
With `Cc1c(C2(c3cc(C(C)C)c(O)c(Br)c3C)OS(=O)(=O)c3ccccc32)cc(C(C)C)c(O)c1Br` [Bromothymol blue], in series [1], the pH range is reported as 6.0-7.6 pH.
For the compound `CC1(C)S[C@@H]2[C@H](NC(=O)C(C(=O)O)c3ccccc3)C(=O)N2[C@H]1C(=O)O` (stereo partly drawn) [Carbenicillin], the “Percent growth as compared to a growth control without antibiotics” value in series [2] (40 mcg) is 77%; in series [3] (40 mcg) it was 54%; in series [4] (40 mcg), 69%; in series [5] (40 mcg) it was 89%.
Turning to `CC(=O)OCC1=C(C(=O)O)N2C(=O)[C@@H](NC(=O)Cc3cccs3)[C@H]2SC1` [Cephalothin], the “Percent growth as compared to a growth control without antibiotics” value in series [2] (13.5 mcg) turned out to be 66%; in series [3] (13.5 mcg) it was 53%; in series [4] (13.5 mcg) it was 26%; in series [5] (13.5 mcg) it was 108%.
On to `O=S1(=O)OC(c2ccc(O)c(Cl)c2)(c2ccc(O)c(Cl)c2)c2ccccc21` [Chlorophenol red], for which the pH range in series [1] is recorded as 4.8-6.4 pH.
For the compound `[Cl][Co][Cl]` [Cobalt chloride], the “Percent growth as compared to a growth control without antibiotics” value was 35% in series [2] (205 mcg), 27% in series [3] (205 mcg), 17% in series [4] (205 mcg) and 52% in series [5] (205 mcg).
Regarding `Nc1c(/N=N/c2ccc(-c3ccc(/N=N/c4cc(S(=O)(=O)O)c5ccccc5c4N)cc3)cc2)cc(S(=O)(=O)O)c2ccccc12` [Congo red], the pH range in series [1] is reported as 3.0-5.0 pH.
Consider `Cc1cc(C2(c3ccc(O)c(C)c3)OS(=O)(=O)c3ccccc32)ccc1O` [Cresol red], for which, in series [1], the “pH range (acid range)” value is listed as 0.2-1.8 pH and the “pH range (basic range)” value is 7.2-8.8 pH.
Consider `N[C@@H]1CON=C1O` [Cycloserine], for which the “Percent growth as compared to a growth control without antibiotics” value is recorded as 116% in series [2] (78 mcg); 27% in series [2] (240 mcg); 13% in series [3] (78 mcg); 8% in series [3] (240 mcg); 107% in series [4] (78 mcg); 26% in series [4] (240 mcg). The “Percent growth as compared to a growth control without antibiotics” value in series [5] (78 mcg) is on record as 56%; in series [5] (240 mcg), 66%.
With `O=C(O)c1cc(Br)cc(Br)c1O` [Dibromosalicyclic acid], the “Percent growth as compared to a growth control without antibiotics” value in series [2] (750 mcg) is reported as 25%; in series [3] (750 mcg), 83%; in series [4] (750 mcg), 38%; in series [5] (750 mcg) it was 88%.
Take `CCCCCCCCCCCCN` [Dodecylamine]: the “Percent growth as compared to a growth control without antibiotics” value in series [2] (18.75 mcg) is given as 106%; in series [3] (18.75 mcg), 99%; in series [4] (18.75 mcg) it was 108%; in series [5] (18.75 mcg) it was 118%.
On to `O=c1[nH]c(=O)n([C@H]2C[C@H](O)[C@@H](CO)O2)cc1F` [Floxuridine], for which the “Percent growth as compared to a growth control without antibiotics” value in series [2] (36 mcg) is 75%; in series [3] (36 mcg), 55%; in series [4] (36 mcg), 35%; in series [5] (36 mcg), 79%.
In the case of `CN(C)c1ccc(C(=C2C=CC(=[N+](C)C)C=C2)c2ccccc2)cc1` [Malachite green], the “Percent growth as compared to a growth control without antibiotics” value in series [2] (3 mcg) came to 66%; in series [3] (3 mcg) it was 40%; in series [4] (3 mcg), 107%; in series [5] (3 mcg) it was 87%.
Take `CN(C)c1ccc(N=Nc2ccccc2)cc1` [Methyl Yellow]: in series [1], the pH range is listed as 2.9-4.0 pH.
Turning to `CN(C)c1ccc(N=Nc2ccc(S(=O)(=O)O)cc2)cc1` [Methyl orange], in series [1], the pH range is given as 3.1-4.4 pH.
In the case of `CN(C)c1ccc(/N=N/c2ccccc2C(=O)O)cc1` [Methyl red], the pH range in series [1] is recorded as 4.2-6.3 pH.
As to `CN(C)c1ccc2nc3ccc(=[N+](C)C)cc-3sc2c1` [Methylene blue], the “Percent growth as compared to a growth control without antibiotics” value in series [2] (255 mcg) turned out to be 56%; in series [3] (255 mcg) it was 20%; in series [4] (255 mcg), 80%; in series [5] (255 mcg) it was 90%.
In the case of `Cc1cc2nc3ccc(N(C)C)cc3nc2cc1N` [Neutral red], the pH range in series [1] is 6.8-8.0 pH.
Consider `CO[C@@H]1[C@@H](OC(N)=O)[C@@H](O)[C@H](Oc2ccc3c(O)c(NC(=O)c4ccc(O)c(CC=C(C)C)c4)c(=O)oc3c2C)OC1(C)C` [Novobiocin], for which the “Percent growth as compared to a growth control without antibiotics” value in series [2] (48 mcg) came out at 16%; in series [3] (48 mcg), 9%; in series [4] (48 mcg), 48%; in series [5] (48 mcg), 85%.
As to `[O-][n+]1ccccc1SSc1cccc[n+]1[O-]` [Omadine disulfide], the “Percent growth as compared to a growth control without antibiotics” value in series [2] (5.5 mcg) is given as 36%; in series [3] (5.5 mcg) it was 10%; in series [4] (5.5 mcg), 71%; in series [5] (5.5 mcg) it was 94%.
In the case of `O=S1(=O)OC(c2ccc(O)cc2)(c2ccc(O)cc2)c2ccccc21` [Phenol red], the pH range in series [1] was 6.8-8.4 pH.
With `O=C1OC(c2ccc(O)cc2)(c2ccc(O)cc2)c2ccccc21` [Phenolphthalein], the pH range in series [1] is listed as 8.3-10.0 pH.
As for `O=S1(=O)OC(c2cc(Br)c(O)c(Br)c2)(c2cc(Br)c(O)c(Br)c2)c2c(Br)c(Br)c(Br)c(Br)c21` [Tetrabromophenol blue], the pH range in series [1] is on record as 3.0-4.6 pH.
`Cc1cc(O)c(C(C)C)cc1C1(c2cc(C(C)C)c(O)cc2C)OS(=O)(=O)c2ccccc21` [Thymol blue]: in series [1], the “pH range (acid range)” value is on record as 1.2-2.8 pH and the “pH range (basic range)” value is on record as 8.0-9.6 pH.
Consider `Cc1cc(O)c(C(C)C)cc1C1(c2cc(C(C)C)c(O)cc2C)OC(=O)c2ccccc21` [Thymolphthalein], for which the pH range in series [1] is reported as 9.3-10.5 pH.
As for `O=S(=O)(O)c1ccc(N=Nc2ccc(Nc3ccccc3)cc2)cc1` [Tropaeolin OO], the pH range in series [1] is listed as 1.3-3.0 pH.
As for `O=S(=O)(O)c1ccc(N=Nc2ccc(O)cc2O)cc1` [Tropaeolin O], in series [1], the pH range is reported as 11.1-12.7 pH.
In the case of `Cc1cc(O)ccc1C1(c2ccc(O)cc2C)OS(=O)(=O)c2ccccc21` [m-Cresol purple], in series [1], the “pH range (acid range)” value is on record as 1.0-2.6 pH and the “pH range (basic range)” value is recorded as 7.6-9.2 pH.
For Alizarin yellow, in series [1], the pH range was 10.1-12.0 pH.
Turning to Azolitmin [Azolitmin (litmus)], the pH range in series [1] was 5.0-8.0 pH.
